Columns and labels:
[1] = biological target: T1, recombinant human MAO-B (Homo sapiens, UniProt P27338); experiment: MAO-Glo chemiluminescent MAO-B inhibition assay; format: biochemical; conditions: for MAO-B inhibition (Yes/No): overall verdict over 1, 10 and 100 μM; for inhibition at 1 µM: test concentration 1 μM; for inhibition at 1 µM / inhibition at 10 µM / inhibition at 100 µM: mean ± standard deviation, triplicate, 90 min incubation; for inhibition at 10 µM: test concentration 10 μM; for inhibition at 100 µM: test concentration 100 μM;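 as to all read-outs here: MAO-B from microsomes of baculovirus-infected insect cells, luciferin-based luminescence read-out, inhibition relative to enzyme activity with DMSO vehicle alone and no inhibitor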
T1 construct: purchased Sigma-Aldrich; host or cells: baculovirus-infected insect cells (microsomes)
T1 sequence (P27338 1-520): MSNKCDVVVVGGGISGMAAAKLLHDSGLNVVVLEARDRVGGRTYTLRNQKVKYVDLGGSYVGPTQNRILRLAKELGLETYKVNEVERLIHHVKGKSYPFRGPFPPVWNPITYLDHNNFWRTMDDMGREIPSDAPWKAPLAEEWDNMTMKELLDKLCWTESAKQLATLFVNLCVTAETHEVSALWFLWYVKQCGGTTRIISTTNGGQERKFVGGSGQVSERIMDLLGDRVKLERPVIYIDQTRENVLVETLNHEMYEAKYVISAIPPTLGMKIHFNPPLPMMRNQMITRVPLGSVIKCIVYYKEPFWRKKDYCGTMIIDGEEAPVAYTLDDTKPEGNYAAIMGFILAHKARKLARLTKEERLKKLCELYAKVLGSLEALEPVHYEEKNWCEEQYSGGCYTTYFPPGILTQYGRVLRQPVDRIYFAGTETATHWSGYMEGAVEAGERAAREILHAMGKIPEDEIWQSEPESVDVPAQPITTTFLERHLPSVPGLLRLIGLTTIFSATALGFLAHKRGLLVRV

[2] = measured in vivo in rat brain; cited from earlier work

## COc1ccccc1O [2-Methoxyphenol]
[1]
  MAO-B inhibition (Yes/No): No
  inhibition at 1 µM: 0%
  inhibition at 10 µM: 0%
  inhibition at 100 µM: 0%

## O=Cc1ccc(O)c(O)c1 [3,4-Dihydroxybenzaldehyde]
[1]
  MAO-B inhibition (Yes/No): No
  inhibition at 1 µM: 0%
  inhibition at 10 µM: 4 ± 5.1%
  inhibition at 100 µM: 9 ± 3.6%

## CC(=O)C(C)O (stereo not drawn) [3-Hydroxy-2-butanone]
[1]
  MAO-B inhibition (Yes/No): No
  inhibition at 1 µM: 11 ± 4.2%
  inhibition at 10 µM: 6 ± 5.2%
  inhibition at 100 µM: 7 ± 3.4%

## CC1=C(O)C(=O)C(C)O1 (stereo not drawn) [4-Hydroxy-2,5-dimethyl-3(2H)-furanone]
[1]
  MAO-B inhibition (Yes/No): No
  inhibition at 1 µM: 0%
  inhibition at 10 µM: 9 ± 3.3%
  inhibition at 100 µM: 7 ± 11.7%

## O=Cc1ccc(O)cc1 [4-Hydroxybenzaldehyde]
[1]
  MAO-B inhibition (Yes/No): Yes
  inhibition at 1 µM: 10 ± 3.2%
  inhibition at 10 µM: 6 ± 4.7%
  inhibition at 100 µM: 27 ± 5.1%

## O=C(O)c1ccc(O)cc1 [4-Hydroxybenzoic acid]
[1]
  MAO-B inhibition (Yes/No): No
  inhibition at 1 µM: 13 ± 3.2%
  inhibition at 10 µM: 9 ± 5.2%
  inhibition at 100 µM: 11 ± 5.7%

## OCc1ccc(O)cc1 [4-Hydroxybenzyl alcohol]
[1]
  MAO-B inhibition (Yes/No): No
  inhibition at 1 µM: 1 ± 7.9%
  inhibition at 10 µM: 0%
  inhibition at 100 µM: 6 ± 8.1%

## COc1ccc(C=O)cc1 [4-Methoxybenzaldehyde]
[1]
  MAO-B inhibition (Yes/No): Yes
  inhibition at 1 µM: 0%
  inhibition at 10 µM: 11 ± 3.8%
  inhibition at 100 µM: 75 ± 1.9%

## O=C(/C=C/c1ccccc1)OCc1ccccc1 [Benzyl cinnamate]
[1]
  MAO-B inhibition (Yes/No): Yes
  inhibition at 1 µM: 10 ± 6.4%
  inhibition at 10 µM: 63 ± 3.1%
  inhibition at 100 µM: 100%

## O=C(O)/C=C/c1ccc(O)cc1 [Coumaric acid]
[1]
  inhibition at 1 µM: 11 ± 4.2%
  inhibition at 10 µM: 16 ± 2.8%
  inhibition at 100 µM: 17 ± 7.3%

## CCOc1cc(C=O)ccc1O [Ethyl vanillin]
[1]
  MAO-B inhibition (Yes/No): No
  inhibition at 1 µM: 0%
  inhibition at 10 µM: 0%
  inhibition at 100 µM: 4 ± 5.3%

## C=CCc1ccc(O)c(OC)c1 [Eugenol]
[1]
  MAO-B inhibition (Yes/No): No
  inhibition at 1 µM: 0%
  inhibition at 10 µM: 4 ± 4.6%
  inhibition at 100 µM: 0%

## COc1cc(/C=C/C(=O)O)ccc1O [Ferulic acid]
[1]
  MAO-B inhibition (Yes/No): No
  inhibition at 1 µM: 4 ± 1.2%
  inhibition at 10 µM: 9 ± 1.7%
  inhibition at 100 µM: 4 ± 7%

## O=Cc1ccc2c(c1)OCO2 [Piperonal]
[1]
  MAO-B inhibition (Yes/No): Yes
  inhibition at 1 µM: 10 ± 2.9%
  inhibition at 10 µM: 53 ± 4%
  inhibition at 100 µM: 100%

## COc1cc(C(=O)O)ccc1O [Vanillic acid]
[1]
  MAO-B inhibition (Yes/No): No
  inhibition at 1 µM: 6 ± 4.2%
  inhibition at 10 µM: 5 ± 7.3%
  inhibition at 100 µM: 11 ± 3.3%

## COc1cc(C=O)ccc1O [Vanillin]
[1]
  inhibition at 100 µM: 19 ± 5.6%

## COc1cc(CO)ccc1O [Vanillyl Alcohol]
[1]
  MAO-B inhibition (Yes/No): No
  inhibition at 1 µM: 2 ± 4%
  inhibition at 10 µM: 9 ± 3%
  inhibition at 100 µM: 6 ± 5.1%

## COc1ccc(C=O)cc1OC [Veratraldehyde]
[1]
  MAO-B inhibition (Yes/No): No
  inhibition at 1 µM: 1 ± 1.5%
  inhibition at 10 µM: 2 ± 6.6%
  inhibition at 100 µM: 0%

## NCCc1ccccc1 [phenylethylamine, Phenylethylamine]
[2]
  endogenous pool half-life: approximately 30 s
